Data on four compounds can be found in patent US20050106111A1, “Compositions and methods for reducing dental plaque” (Aphios Corporation, priority 2003, published 2005).

Values after ≈ are worked out from the molar mass of the structure shown. Like-named read-outs stand apart in the source and are kept apart here.

The conditions of data set [1]: clinical trials; cited from earlier work.
In data set [2] the test system is Streptococcus mutans. Put plainly: Minimum bactericidal concentration (MBC) against S. mutans. It counts as cell-based. An excerpt:
(§1) Minimum inhibitory concentrations (MIC) can be determined to identify the minimum concentration of a composition needed to inhibit the growth of the target organism using methods well known to those skilled in the art. Minimum bactericidal concentrations (MBC) can be determined to identify the minimum concentration of a composition needed to kill the target organism using methods well known to those skilled in the art. The MBC can be determined from the same plates set up for the MIC.
(§2) Cultures of Actinomyces viscosus, Streptococcus mutans, and Actinobacillus actinomycete-mcomitans were obtained from the American Type Culture Collection (ATCC) following instructions provided by ATCC. Frozen stocks of each bacteria were prepared by adding 10% (v/v) volume of glycerol to an overnight culture; aliquots of the resulting suspension were then frozen at −80° C.
(§3) Minimum inhibitory concentrations (MIC) were determined to identify the minimum concentration of a compound needed to inhibit the growth of the target organism. Minimum bactericidal concentrations (MBC) were determined to identify the minimum concentration of a compound needed to kill the target organism. The MBC was determined from the same plates set up for the MIC.

Data set [3] deals with A. actinomycetemcomitans. Put plainly: Minimum bactericidal concentration (MBC) against A. actinomycetemcomitans. To be noted: Aggregatibacter actinomycetemcomitans. It counts as cell-based.
Description: as §1, §2, §3

The subject of data set [4] is A. actinomycetemcomitans. Put plainly: Minimum inhibitory concentration (MIC) against A. actinomycetemcomitans. It is filed as cell-based. To be noted: Aggregatibacter actinomycetemcomitans.
Description: as §1, §2, §3

For data set [5], the system named is Streptococcus mutans. Put plainly: Minimum inhibitory concentration (MIC) against S. mutans. It is filed as cell-based.
Description: as §1, §2, §3

Data set [6] relates to Actinomyces viscosus. Put plainly: Minimum bactericidal concentration (MBC) against A. viscosus. It counts as cell-based.
Description: as §1, §2, §3

Data set [7] deals with Actinomyces viscosus. Put plainly: Minimum inhibitory concentration (MIC) against A. viscosus. It counts as cell-based.
Description: as §1, §2, §3

The subject of a further data set is S. mutans. Put plainly: Biofilm assay, bactericidal activity against S. mutans in a biofilm on a solid support. It is filed as cell-based. The note with it: 125 μg/mL, 1 hour incubation in test agent. As for the experimental part:
(§4) A biofilm assay can be conducted to assess the bactericidal activity of the target compositions when the challenge organisms are contained within a biofilm. The semi-purified Vibrio gazogenes extract can be assayed for bactericidal activity against orally-relevant microbes contained in a biofilm grown on a solid support.
(§5) A biofilm assay was conducted to access the bactericidal activity of the target compounds when the challenge organisms are contained within a biofilm. The semi-purified Vibrio gazogenes extract was assayed for bactericidal activity against orally-relevant microbes contained in a biofilm grown on a solid support.

The subject of another data set is A. viscosus. Put plainly: Biofilm assay, bactericidal activity against A. viscosus in a biofilm on a solid support. To be noted: 125 μg/mL, 1 hour incubation in test agent. It is filed as cell-based. Here is the method:
as §4, §5

Data set [8] deals with A. actinomycetemcomitans. Put plainly: Biofilm assay, bactericidal activity against A. actinomycetemcomitans in a biofilm on a solid support. It counts as cell-based. To be noted: 125 μg/mL, 1 hour incubation in test agent. Here is the method:
as §4, §5

The next data set has as its system mice. The note with it: cited from earlier work.

The term LD50 denotes the dose expected to kill half of the subjects tested.

Take `N=C(NCCCCCCNC(=N)NC(=N)Nc1ccc(Cl)cc1)NC(=N)Nc1ccc(Cl)cc1.O=C(O)[C@H](O)[C@@H](O)[C@H](O)[C@H](O)CO.O=C(O)[C@H](O)[C@@H](O)[C@H](O)[C@H](O)CO` [CHG, chlorhexidine digluconate]: the reduced gingivitis in data set [1] is recorded as 50-80%.
With `[H]/N=C(\N/C(=N/[H])NCCCCCCNC(=N)NC(=N)Nc1ccc(Cl)cc1)Nc1ccc(Cl)cc1` [Chlorhexidine, chlorhexidine], the MBC with Streptococcus mutans [2] (S. mutans, read-out: MBC) was 1.95 µg/mL (≈ 3.86 µM); in the data set with A. actinomycetemcomitans [3] (A. actinomycetemcomitans, read-out: MBC) it was 3.9 µg/mL (≈ 7.72 µM); in the data set on Actinomyces viscosus [6] (A. viscosus, read-out: MBC), 7.8 µg/mL (≈ 15.4 µM). For the same compound, the MIC amounted to 3.9 µg/mL (≈ 7.72 µM) with A. actinomycetemcomitans [4] (A. actinomycetemcomitans, read-out: MIC); 1.95 µg/mL (≈ 3.86 µM) with Streptococcus mutans [5] (S. mutans, read-out: MIC); 3.9 µg/mL (≈ 7.72 µM) in the data set with Actinomyces viscosus [7] (A. viscosus, read-out: MIC).
Consider `Oc1cc(Cl)ccc1Oc1ccc(Cl)cc1Cl` [Triclosan, 5-chloro-2-(2,4-dichlorophenoxy)-phenol], for which the “Microbial Biofilm Control (bacteria count after treatment)” value in the data set on S. mutans is on record as 0; in the data set with A. viscosus, 6.0 × 10^5; in the data set with A. actinomycetemcomitans [8] it was 2.1 × 10^6. Besides, the MBC is 15.6 µg/mL (≈ 53.9 µM) with Streptococcus mutans [2], less than 0.75 µg/mL in the data set on A. actinomycetemcomitans [3] and 3.9 µg/mL (≈ 13.5 µM) in the data set on Actinomyces viscosus [6]. The MIC was less than 0.75 µg/mL with A. actinomycetemcomitans [4], 7.8 µg/mL (≈ 26.9 µM) with Streptococcus mutans [5] and 3.9 µg/mL (≈ 13.5 µM) in the data set with Actinomyces viscosus [7].
Regarding magnesidin, the 50% lethal dose (LD50) in the data set with mice (intraperitoneal) is given as 50 mg/kg; in the data set with mice (oral or subcutaneous) it was 1,000 mg/kg.
